Patent US20220409617A1, “Drug Formulations and Methods of Treatment for Metabolic Disorders” (The Regents of the University of California, priority 2019, published 2022)
Entries after “also recorded” stand apart in the source; their conditions may differ.

Tests used:
[1] = system: mouse embryonic fibroblasts (MEFs); assay type: cell-based; conditions: 3 h pre-treatment then palmitate 250 μM 3 h, 893 5 μM, myriocin 10 μM, fumonisin B1 30 μM, NAV-2729 12.5 μM, YM201636 800 nM, celastrol 500 nM
Description: Mitochondrial morphology was assessed by examining citrate synthesis expression under a high resolution microscopy. Specifically, the aspect ratio, branch length and roundness of mitochondria was assessed (FIG. 1).
LSL-KrasG12D mouse embryonic fibroblasts (MEFs) with and without Cre-mediated deletion of the STOP cassette were obtained from David Tuveson (Cold Spring Harbor Laboratory, Cold Spring Harbor N.Y., USA) in 2000. p53^flox/flox MEFs were derived in house (2015) from C57BL/6 mice using standard techniques and immortalized by transient expression of Cre recombinase and deletion of p53. MEFs were cultured and maintained in DMEM with 10% FBS and 1% penicillin-streptomycin. […] Stock solution of palmitic acid (ACROS Organics, cat # AC129702500) was prepared at 100 mM in ethanol. Palmitate (250 μM) was conjugated to 1% (w/v) fatty-acid free bovine serum albumin (Sigma, A8806) in DMEM at 37° C. for 20 min. For all immunofluorescence assays, 8,000 MEFs were seeded into 8-chamber slides (Cellvis, cat # C8-1.5H-N) 12-16 h before treatment. Cells were pre-treated with sphingolipid-like compound 893 (5 μM in water), myriocin (10 μM in methanol), fumonisin-B1 (30 μM in DMSO), or celastrol (500 nM in DMSO) for 3 h followed by a 3 h treatment with BSA-conjugated palmitate mixture or BSA alone.

[2] = system: DRP1; assay: DRP1 recruitment to mitochondria (DRP1/citrate synthase co-localization) and DRP1 western blot; assay type: cell-based, mouse; conditions: MEFs
Description: Mature adipocytes were serum starved for 16 h then treated with vehicle, ceramide (50 or 100 μM), or sphingolipid-like compound 893 (5 or 10 μM) in serum-free media supplemented with 0.2% fatty-acid free BSA for 3 h after which 100 nM insulin was added for 15 min. To determine total DRP1 protein levels, 100,000 MEFs were seeded into a 6-well plate for 16 h, pre-treated for 3 h with vehicle or sphingolipid-like compound 893 (5 μM) followed by a 3 h incubation in 1% BSA+ethanol or BSA-palmitate (250 μM). Cells were washed once with cold PBS, then lysed in cold RIPA buffer (140 mM NaCl, 10 mM Tris pH 8.0, 1% Triton X-100, 0.1% SDS, 1% sodium deoxycholate) with cOmplete™ protease inhibitor (Cat no. 11697498001, Millipore Sigma, St. Louis, Mo.) and phosSTOP™ phosphatase inhibitor (Cat no. 4906837001, Millipore Sigma). Samples were incubated on ice for 10 min and insoluble material removed by centrifugation (9000×g for 10 min at 4° C.). Protein content was quantified in the supernatant using the Pierce™ BCA Protein Assay Kit (Thermo-Fisher Scientific, Waltham, Mass.). Equal amounts of protein were prepared in NuPAGE® LDS Sample Buffer (NP0007, Invitrogen) containing 50 mM DTT, and heated at 70° C. for 10 min. Proteins were resolved on a NuPAGE® 4-12% Bis-Tris protein gel (NP0336, Invitrogen, Carlsbad, Calif.) and subsequently transferred to a nitrocellulose membrane. Membranes were blocked in 5% BSA in TBST for 1 h, then probed with primary antibodies overnight at 4° C. […] Band intensity was quantified using Image Studio Lite V5.2 software (Li-COR).
MEFs were washed twice with PBS and fixed with 4% paraformaldehyde for 10 min at RT. […] NADH/NADPH autofluorescence was detected with 740 nm excitation and 450±50 nm detectors using a Mai Tai two-photon laser. Fluorescence microscopy was performed on a Zeiss LSM 780 confocal using a 63× oil objective with a […] numerical aperture (NA) or using a Nikon TE2000-S inverted epifluorescence microscope with a 100× oil objective (1.3 NA) and a Photometrics CoolSNAP ES2 monochrome CCD camera. […]

[3] = target: PIKfyve (Homo sapiens, UniProt Q9Y2I7); conditions: cited from earlier work
PIKfyve, sequence (Q9Y2I7 whole entry, species assumed): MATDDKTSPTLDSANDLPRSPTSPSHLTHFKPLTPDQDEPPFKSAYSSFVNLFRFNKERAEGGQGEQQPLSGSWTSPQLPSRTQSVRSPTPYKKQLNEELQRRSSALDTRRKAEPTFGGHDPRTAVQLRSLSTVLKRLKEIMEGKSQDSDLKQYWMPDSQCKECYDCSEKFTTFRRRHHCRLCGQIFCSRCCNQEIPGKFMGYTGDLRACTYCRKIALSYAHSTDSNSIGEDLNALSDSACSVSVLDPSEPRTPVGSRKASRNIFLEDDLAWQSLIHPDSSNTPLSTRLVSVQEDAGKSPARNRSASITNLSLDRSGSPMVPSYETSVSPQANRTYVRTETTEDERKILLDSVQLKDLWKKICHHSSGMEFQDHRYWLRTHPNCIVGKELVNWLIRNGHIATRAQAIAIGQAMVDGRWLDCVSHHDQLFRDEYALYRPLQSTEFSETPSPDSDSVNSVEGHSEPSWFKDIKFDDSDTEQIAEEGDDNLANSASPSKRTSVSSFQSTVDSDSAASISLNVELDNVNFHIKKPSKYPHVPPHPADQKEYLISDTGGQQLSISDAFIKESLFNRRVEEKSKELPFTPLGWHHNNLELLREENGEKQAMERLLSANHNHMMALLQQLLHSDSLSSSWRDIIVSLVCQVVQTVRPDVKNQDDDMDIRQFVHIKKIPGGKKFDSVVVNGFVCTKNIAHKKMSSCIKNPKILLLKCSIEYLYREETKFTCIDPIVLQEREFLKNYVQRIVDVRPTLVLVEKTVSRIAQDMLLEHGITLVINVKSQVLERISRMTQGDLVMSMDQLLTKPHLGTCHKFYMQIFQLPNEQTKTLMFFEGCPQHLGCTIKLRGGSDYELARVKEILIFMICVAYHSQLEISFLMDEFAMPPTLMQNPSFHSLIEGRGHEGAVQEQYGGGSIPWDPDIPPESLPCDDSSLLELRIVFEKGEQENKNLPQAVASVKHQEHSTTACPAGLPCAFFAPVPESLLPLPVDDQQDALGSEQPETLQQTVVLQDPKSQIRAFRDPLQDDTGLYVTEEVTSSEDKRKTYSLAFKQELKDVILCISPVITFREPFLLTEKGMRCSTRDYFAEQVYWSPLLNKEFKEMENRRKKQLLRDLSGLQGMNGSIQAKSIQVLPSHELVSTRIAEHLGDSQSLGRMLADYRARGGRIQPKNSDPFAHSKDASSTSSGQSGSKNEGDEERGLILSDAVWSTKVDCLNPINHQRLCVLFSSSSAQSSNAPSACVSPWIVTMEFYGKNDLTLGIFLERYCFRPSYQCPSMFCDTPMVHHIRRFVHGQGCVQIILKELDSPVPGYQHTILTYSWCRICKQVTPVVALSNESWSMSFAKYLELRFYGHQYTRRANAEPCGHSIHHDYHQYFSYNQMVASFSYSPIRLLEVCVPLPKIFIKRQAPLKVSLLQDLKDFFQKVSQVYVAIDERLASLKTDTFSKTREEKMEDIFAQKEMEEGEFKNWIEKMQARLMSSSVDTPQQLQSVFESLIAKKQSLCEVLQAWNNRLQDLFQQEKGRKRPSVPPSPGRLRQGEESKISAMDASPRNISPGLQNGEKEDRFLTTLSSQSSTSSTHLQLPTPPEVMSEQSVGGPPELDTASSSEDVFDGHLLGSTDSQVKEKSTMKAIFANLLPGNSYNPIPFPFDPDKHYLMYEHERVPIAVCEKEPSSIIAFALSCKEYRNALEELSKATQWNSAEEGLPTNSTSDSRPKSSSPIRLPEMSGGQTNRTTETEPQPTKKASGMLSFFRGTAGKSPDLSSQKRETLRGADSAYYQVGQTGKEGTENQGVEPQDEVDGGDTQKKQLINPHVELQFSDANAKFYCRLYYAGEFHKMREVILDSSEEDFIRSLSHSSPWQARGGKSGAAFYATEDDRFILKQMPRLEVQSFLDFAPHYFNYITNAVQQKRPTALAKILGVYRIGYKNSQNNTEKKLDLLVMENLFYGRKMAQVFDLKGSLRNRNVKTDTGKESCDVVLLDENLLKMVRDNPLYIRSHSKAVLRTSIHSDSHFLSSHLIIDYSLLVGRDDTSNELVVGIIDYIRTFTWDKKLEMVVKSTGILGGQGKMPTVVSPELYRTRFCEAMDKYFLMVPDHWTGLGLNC

## CCCCCCCCc1ccc([C@H]2CCN[C@@H]2CO)cc1.Cl [compound 893]
[1]
  Protection from palmitate-induced mitochondrial fragmentation (aspect ratio, branch length, roundness): robust protection from both ceramide- and palmitate-induced mitochondrial fragmentation; also recorded: preserved a tubular, branched mitochondrial network in palmitate-treated cells
[2]; 893 5 μM or YM201636 800 nM 3 h, then palmitate 250 μM 3 h
  DRP1 recruitment to mitochondria in response to palmitate: prevented the recruitment of the GTPase that mediates fission, DRP1, to mitochondrial membranes
[2]; 893 5 μM, palmitate 250 μM, western blot
  DRP1 protein expression levels: without affecting DRP1 protein expression levels
[3]
  Effect on PIKfyve: inactivates
